Assay results taken from patent US6713633B1, “Compounds capable of cleaving double-stranded DNA and method of utilization of the same” (Japan Science and Technology Corporation, priority 1999, dated 2004).

Key:
[1] = system: HeLaS3 cells; experiment: Growth Inhibitory Test on HeLaS3 Cells; type: cell-based; conditions: Homo sapiens, HeLa S3, 72 hours incubation, cell counts
Procedure: Cytotoxic activity of the compound of the present invention based on the properties described hereinbefore was examined. Cytotoxic activities of PyPyLDu86 and ImPyLDu86 of the present invention and known anticancer agent duocarmycin on HeLaS3 cells (uterocervical squamous cell carcinoma cells) were tested.
Suspension 0.75 ml of HeLaS3 cells, 2.67×10^4 cells/ml, in MEM medium containing 10% fetal bovine serum and 2 mM glutamine, was dispensed into each well in 24 cell culture plate. After incubation in the CO2-incubator at 37° C. for overnight, 0.25 ml portions of each test compound shown in Table 1, which was appropriately diluted with medium, was added into each well.
After cells were incubated for 72 hours in the CO2-incubator, the culture supernatant was removed, and cells were dispersed using trypsin-ethylenediaminetetraacetic acid (EDTA) and collected. Cell counts were counted by cell counter, and cell counts without treatment and cell counts treated with known concentration of test compound were compared to calculate the concentration of test compound which inhibits 50% of cell growth (IC50).

[2] = system: 5′-end texas red-modified 450 bp DNA fragments pUC18 F780*-1229 and pUC18 R1459*-1908; experiment: Alkylation of 450 bp DNA fragments (thermally induced strand cleavage, high-resolution gel electrophoresis); type: biochemical
Source text: Reactivities of the thus synthesized PyPyLDu86 and ImPyLDu86 with DNA were investigated.
The left electrophoresis pattern is a result of the upper strand of the double-strand DNA, and the right electrophoresis pattern is a result of the lower strand of the double-strand DNA. […] No compounds have been known to occur such the cleavage, and in this sense, the compound of the present invention can be said as an artificial restriction enzyme.
(1) Preparation of 5′-texas red-end-modified 450 bp DNA fragment
The 5′-end texas red-modified 450 bp DNA fragments pUC18 F780*-1229 and pUC18 R1459*-1908 (these are complementary) were prepared by the PCR method using 5′-end texas red-modified 18mers as primers and purified by filtration using Suprec-02. The concentration was determined by ethidium bromide staining. The asterisk (*) indicates texas red modification site, and numerals indicates nucleotide numbering from the replication origin.
(2) High-resolution gel electrophoresis
A standard reaction mixture containing 5′-end texas red-labeled DNA fragment 60 nM, DMF 5% (v/v) and various concentrations of drugs in total 10 μl of sodium phosphate buffer (pH 7.0) 12.5 mM was added into microcentrifugal tube (Eppendorf tube) and allowed to stand at room temperature for overnight. Calf thymus DNA (5 mM, 1 μl) was added thereto and heated at 90° C. for 5 minutes. DNA was collected by ethanol precipitation. […]

Compound | IC50 [1] [nM] | efficiency of cleavage ([2]; double-strand DNA cleavage, calculated by an amount of used ImPyLDu86) [%] | cleavage of the double-strand DNA (sites) ([2]; upper and lower strand, thermally induced strand cleavage, from the lower concentration)
COC(=O)c1c(C)[nH]c2c1C13CC1CN(C(=O)/C=C/c1cc(NC(=O)c4nc(NC(C)=O)cn4C)cn1C)C3=CC2=O (centres unmarked) [ImPyLDu86] | 0.7 | ~70 | mainly cleaved at the site 1 and the site 2 of the two strands
COC(=O)c1cc2c([nH]1)C(=O)C=C1N(C(=O)c3cc4cc(OC)c(OC)c(OC)c4[nH]3)C[C@H]3C[C@]123 [Duocaraycin, duocarmycin, reference compound] | 4.7 | – | –
COC(=O)c1c(C)[nH]c2c1C13CC1CN(C(=O)/C=C/c1cc(NC(=O)c4cc(NC(C)=O)cn4C)cn1C)C3=CC2=O (centres unmarked) [PyPyLDu86] | 1.5 | – | –
